This is an account of results in patent publication US6069167A, “Use of antioxidant agents to treat cholestatic liver disease” (priority 1997, dated 2000).

One series relates to bile flow. The settings on record: continuous jugular vein TCDC infusion 0.4 to 0.6 μmol/min/100 gram over 60 minutes; cited from earlier work.
For series [1], the system named is lactate dehydrogenase (LDH). The series can be described thus: Interference of TCDC with the LDH assay (total LDH activity of hepatocyte lysate). The class given is cell-based, rat. The note with it: 10×10^6 hepatocytes incubated 4 hours with or without TCDC at 1000 μmol/L. How it is done:
Adult male Sprague Dawley rats (250-275 grams body weight) were obtained from Sasco, Inc. (Omaha, Nebr.). They were maintained on Purina lab chow (Ralston Purina Co., Chicago, Ill.) for 2-3 weeks and housed in polyethylene cages with stainless steel tops on a […]. All rats received humane care in compliance with the guidelines of the Committee on Laboratory Animal Research of the University of Colorado Health Sciences Center. Hepatocytes were isolated using a collagenase reperfusion technique that was a modification^24 of the method of Berry and Friend^25. After administration of intraperitoneal anesthesia (50 mg/kg body weight), each rat liver was perfused in situ via the portal vein with Krebs-Henseleit buffer containing a mixture of 17 amino acids as previously described^24 under a 9% O2 /5% CO2 /86% N2 atmosphere until perfusate was blood free (after approximately 25-50 ml of perfusate infusion). […] Initial cell viability measured by the trypan blue exclusion method^43 was above 95%. […]
Hepatocyte injury was assessed by the percentage of total cellular lactate dehydrogenase (LDH) release into the buffer medium. LDH was analyzed by measuring the rate of decrease in absorbance at 340 nm during reduction of pyruvate using a diagnostic kit supplied by Sigma Diagnostics (St Louis, Mo.). […]

For a further series, the system named is hepatic mitochondria. The series can be described thus: Lipid-conjugated dienes of hepatic mitochondria (lipid peroxidation). The class given is in vivo, male Sprague-Dawley rats. As for the experimental part:
Hepatic Mitochondria Isolation
Mitochondria were isolated from 10 grams of fresh liver from individual rats by a modification of a previously described method^27. Briefly, the liver was gently homogenized in a loose-fitting Potter-Elvehjm homogenizer in buffer containing 225 mM mannitol, 70 mM sucrose, 3 mM KH2 PO4, 2mM EDTA, 0.1% BSA, 5 mM MgCl2 (pH 7.0), filtered through cheesecloth and centrifuged at 400g×10 minutes. The supernatant was centrifuged at 10,000g for 10 minutes. The supernatant was aspirated and the pellet resuspended and centrifuged at 10,000g for 10 minutes. The resulting mitochondrial pellet was resuspended in 15 ml of buffer, divided into three tubes and added to digitonin (Sigma Chemical Company, St Louis, Mo., 0.29 mg for each gram of original liver) on wet ice×20 minutes, in order to minimize any contamination by lysosomes^28. The resulting mitochondrial preparation was washed two times in the original buffer and centrifuged at 10,000g for 10 minutes. Samples of the pellet were taken for enzyme marker analysis. Two more washes were then performed using a buffer containing 50 mM MOPS/100 mM KCI, yielding the final mitochondrial pellet.
Fresh mitochondria were analyzed for lipid peroxidation as an index of oxidant damage by the lipid-conjugated diene method of Recknagel and Ghoshal^35 with the modification of Bacon et al^36. Briefly, lipids were extracted from mitochondria pellets with chloroform and methanol (2:1, vol/vol), and the lipid in chloroform was dried under a stream of oxygen-free nitrogen^27. The dried lipid was redissolved in 1.5 ml of spectrophotometric grade cyclohexane. Absorbance from 220 to 275 nm was recorded against a cyclohexane blank on a Lambda 2 UV/is Spectrometer (Perkin-Elmer Corp., Norwalk, Conn.). Lipid concentration was approximately 0.5 mg/mi of cyclohexane. After the UV measurements, a 250 μl aliquot from each sample was analyzed for total lipid content by the method of Chiang et al.^37, and absorbance measurements were normalized to a denominator of 1.0 mg lipid per ml of cyclohexane. Lipid peroxidation was estimated by calculating the difference in absorption at 233 nm (the peak absorbance for conjugated dienes) between each rat and the mean of the values from control rats.
Because serum AST and ALT concentrations peaked at 4 hours, further evaluation of liver injury was performed at that time point Total concentrations (conjugated+free bile acids) of individual bile acids were measured in serum obtained at 4 hours by gas chromatography-mass spectroscopy (GC-MS), as previously described^30. Briefly, after serum samples were extracted with the addition of the internal standard 7-alpha, 12-alpha, dihydroxy-5 beta cholanic acid, trimethylsilyl esterification was performed. Individual bile acids were then quantified by GC or GC-MS using a Hewlett-Packard 5790 flame ionization detector equipped with a 30 meter DB-1 capillary column with internal diameter of 0.25 mm and a film thickness of 0.25 micrometers (J & W Scientific, Folsom, Calif.). For GC-MS measurements, a Hewlett-Packard 5970-A mass selective detector operating in selective ion monitoring mode was used. Results were expressed as μmol/L for each individual bile acid.
Rats were divided into two treatment groups. One group was pretreated with parenteral Vitamin E (all-rac-alpha tocopherol, Ephynal, Hoffmann-LaRoche,Nutley, N.J.). The other group was not pretreated. […]

Regarding `C[C@H](CCC(=O)NCCS(=O)(=O)O)[C@H]1CC[C@H]2[C@@H]3[C@H](O)C[C@@H]4C[C@H](O)CC[C@]4(C)[C@H]3CC[C@]12C` [TCDC, taurochenodeoxycholic acid], the “Bile flow and hepatic bile secretion” value with bile flow was “marked reduction in bile flow and of hepatic bile secretion”. Further, the “Total hepatocyte LDH activity in the lysate” value in series [1] was 90-96 units. In addition, in the series on hepatic mitochondria (4 h after TCDC 10 μmol/100 gram), the “Hepatic mitochondrial lipid-conjugated dienes, change versus vehicle” value is “significant elevations”. Further, in the series with hepatic mitochondria (Control/TCDC, n = 13, 4 h), the Lipid-conjugated dienes is given as 0.24 ± 0.02 delta abs. 233 nm/mg lipid.
